The source made the active and inactive calls.
What was measured:
[1] = molecular target: Induced myeloid leukemia cell differentiation protein Mcl-1 (Homo sapiens, UniProt Q07820); assay: MCL1-BIM BH3 interaction inhibitors, dose response, biochemical, fluorescence polarization, BIM-BH3 peptide, 1536-well (AID 2217)
Bcl-2-like protein 1 = Bcl-2-like protein 1 (Homo sapiens, UniProt Q07817); assay: BCL-XL inhibitors, dose response, selectivity assay for MCL1 inhibitor project, biochemical, fluorescence polarization, 1536-well (AID 2218)
[2] = NIH-3T3 fibroblast cytotoxicity, dose response, cytotoxicity control, cell-based, fluorescence, Alamar Blue, secondary assay (AID 2327); assay type: functional;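 further: NIH-3T3 mouse fibroblasts cultured with fluconazole at 8 µg/mL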
[3] = C. albicans growth with fluconazole, confirmation, fluorescence, retest (AID 2467); assay type: functional, cell-based
Protein RecA = molecular target: T1, Protein RecA (Mycobacterium tuberculosis, UniProt P9WHJ3); assay: Fluorescence Cell-Free Homogeneous Dose Retest to Identify Inhibitors of RecA-Intein Splicing Activity. [Related pubchem assays (depositor defined):AID2097, AID2223, AID489010, AID492950]; assay type: functional
T1 sequence (P9WHJ3 whole entry): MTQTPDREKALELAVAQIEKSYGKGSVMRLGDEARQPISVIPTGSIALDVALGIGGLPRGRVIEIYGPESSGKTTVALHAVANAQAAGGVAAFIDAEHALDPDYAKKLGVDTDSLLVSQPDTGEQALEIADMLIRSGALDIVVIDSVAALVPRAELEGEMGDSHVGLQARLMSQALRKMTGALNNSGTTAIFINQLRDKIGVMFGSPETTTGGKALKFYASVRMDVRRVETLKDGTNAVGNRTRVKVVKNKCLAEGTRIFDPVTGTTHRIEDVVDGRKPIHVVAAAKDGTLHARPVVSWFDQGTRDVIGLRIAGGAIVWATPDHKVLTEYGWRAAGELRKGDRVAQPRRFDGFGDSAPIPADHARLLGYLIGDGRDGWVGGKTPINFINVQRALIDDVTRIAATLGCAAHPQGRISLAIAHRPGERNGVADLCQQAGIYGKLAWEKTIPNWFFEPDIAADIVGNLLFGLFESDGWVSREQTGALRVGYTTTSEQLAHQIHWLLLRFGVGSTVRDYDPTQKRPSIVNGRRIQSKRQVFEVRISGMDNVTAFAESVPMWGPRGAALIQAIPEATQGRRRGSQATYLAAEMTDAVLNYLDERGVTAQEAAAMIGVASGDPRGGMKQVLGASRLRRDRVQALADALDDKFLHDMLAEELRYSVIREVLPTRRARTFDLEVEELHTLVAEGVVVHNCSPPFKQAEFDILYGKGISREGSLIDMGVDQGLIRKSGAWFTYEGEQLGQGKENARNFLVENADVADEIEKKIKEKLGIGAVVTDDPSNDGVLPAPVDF

[4] = molecular target: T2, Replicative DNA helicase DnaB (Mycobacterium tuberculosis, UniProt P9WMR3); assay: DnaB intein splicing inhibitors, dose response, biochemical, cell-free fluorescence (AID 449749); assay type: functional
T2 sequence (P9WMR3 whole entry): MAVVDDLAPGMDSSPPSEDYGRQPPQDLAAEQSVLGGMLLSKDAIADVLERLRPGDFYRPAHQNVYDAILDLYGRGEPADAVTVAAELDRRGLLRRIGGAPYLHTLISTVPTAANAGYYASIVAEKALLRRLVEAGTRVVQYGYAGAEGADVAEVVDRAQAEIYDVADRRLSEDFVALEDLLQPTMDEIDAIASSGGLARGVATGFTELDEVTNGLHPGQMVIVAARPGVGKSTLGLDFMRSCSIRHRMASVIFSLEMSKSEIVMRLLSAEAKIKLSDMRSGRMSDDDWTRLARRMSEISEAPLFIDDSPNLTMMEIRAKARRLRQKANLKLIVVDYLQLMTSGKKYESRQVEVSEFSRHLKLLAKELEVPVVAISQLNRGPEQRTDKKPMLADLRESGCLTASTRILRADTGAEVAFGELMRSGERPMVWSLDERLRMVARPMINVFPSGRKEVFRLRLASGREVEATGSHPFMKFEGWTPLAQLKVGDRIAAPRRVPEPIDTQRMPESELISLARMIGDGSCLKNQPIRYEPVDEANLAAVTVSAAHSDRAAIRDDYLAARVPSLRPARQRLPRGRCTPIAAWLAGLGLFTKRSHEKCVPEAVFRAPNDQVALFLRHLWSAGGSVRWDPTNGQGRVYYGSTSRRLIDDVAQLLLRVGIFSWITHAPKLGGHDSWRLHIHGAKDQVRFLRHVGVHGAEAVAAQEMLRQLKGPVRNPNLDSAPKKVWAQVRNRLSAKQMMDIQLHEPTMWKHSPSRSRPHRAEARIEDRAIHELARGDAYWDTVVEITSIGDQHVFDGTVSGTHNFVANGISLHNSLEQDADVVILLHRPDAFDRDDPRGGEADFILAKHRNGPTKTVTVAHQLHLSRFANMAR

Aspartyl aminopeptidase = Aspartyl aminopeptidase (Plasmodium falciparum 3D7, UniProt Q8I2J3); assay: Counterscreen for inhibitors of M1 and M17 aminopeptidases: QFRET-based biochemical high throughput dose response assay for inhibitors of the Plasmodium falciparum M18 Aspartyl Aminopeptidase (PFM18AAP). [Related PubChem assays: 1619 (Screening assay (M17LAP inhibitors).), 1445 (Screening assay (M1AAP inhibitors).)]
Procathepsin L = Procathepsin L (Homo sapiens, UniProt P07711); assay: cathepsin L inhibitors, dose response, counter-screen for M1/M17 aminopeptidase inhibitor project, biochemical, QFRET, 1536-well (AID 2214)
Leucine aminopeptidase = molecular target: T3, Leucine aminopeptidase (Plasmodium falciparum 3D7, UniProt Q8IL11); assay: P. falciparum M17LAP inhibitors, primary screen, biochemical, fluorogenic H-Leu-NHMec substrate, 1536-well (AID 1619); assay type: functional
T3 sequence (Q8IL11 whole entry): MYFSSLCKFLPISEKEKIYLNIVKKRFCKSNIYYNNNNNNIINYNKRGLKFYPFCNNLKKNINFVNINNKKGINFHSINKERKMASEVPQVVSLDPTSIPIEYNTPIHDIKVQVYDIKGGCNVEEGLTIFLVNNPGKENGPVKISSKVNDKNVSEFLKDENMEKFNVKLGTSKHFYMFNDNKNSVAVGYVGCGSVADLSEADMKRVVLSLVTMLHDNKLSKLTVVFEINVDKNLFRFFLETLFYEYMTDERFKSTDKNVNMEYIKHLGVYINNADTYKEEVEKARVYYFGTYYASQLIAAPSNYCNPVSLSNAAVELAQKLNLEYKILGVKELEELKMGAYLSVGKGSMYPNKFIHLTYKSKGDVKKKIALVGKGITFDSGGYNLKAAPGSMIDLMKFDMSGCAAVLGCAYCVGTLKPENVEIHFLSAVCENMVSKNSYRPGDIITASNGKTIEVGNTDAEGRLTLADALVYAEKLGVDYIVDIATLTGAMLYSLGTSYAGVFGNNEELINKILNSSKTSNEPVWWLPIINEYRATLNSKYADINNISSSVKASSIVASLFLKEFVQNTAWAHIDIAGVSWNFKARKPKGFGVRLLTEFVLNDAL

Induced myeloid leukemia cell differentiation protein Mcl-1, sequence (Q07820 whole entry): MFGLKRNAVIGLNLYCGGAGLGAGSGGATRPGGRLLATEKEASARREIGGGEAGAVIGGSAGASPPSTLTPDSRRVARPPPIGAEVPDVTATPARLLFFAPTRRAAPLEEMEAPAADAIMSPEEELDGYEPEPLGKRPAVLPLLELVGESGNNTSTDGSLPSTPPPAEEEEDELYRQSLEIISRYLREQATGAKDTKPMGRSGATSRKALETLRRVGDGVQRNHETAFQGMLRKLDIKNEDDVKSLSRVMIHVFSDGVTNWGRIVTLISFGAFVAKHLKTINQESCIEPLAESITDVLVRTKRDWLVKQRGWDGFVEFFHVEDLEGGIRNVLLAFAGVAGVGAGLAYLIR
Procathepsin L, sequence (P07711 whole entry): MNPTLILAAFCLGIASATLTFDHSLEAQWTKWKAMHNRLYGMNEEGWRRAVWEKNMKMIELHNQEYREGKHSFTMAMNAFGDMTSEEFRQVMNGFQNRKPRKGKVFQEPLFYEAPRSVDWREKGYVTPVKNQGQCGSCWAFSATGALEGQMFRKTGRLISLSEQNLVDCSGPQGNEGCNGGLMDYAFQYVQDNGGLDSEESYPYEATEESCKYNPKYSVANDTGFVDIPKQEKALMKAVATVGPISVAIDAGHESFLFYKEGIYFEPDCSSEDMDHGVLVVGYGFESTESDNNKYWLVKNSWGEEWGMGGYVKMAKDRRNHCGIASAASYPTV
Bcl-2-like protein 1, sequence (Q07817 whole entry): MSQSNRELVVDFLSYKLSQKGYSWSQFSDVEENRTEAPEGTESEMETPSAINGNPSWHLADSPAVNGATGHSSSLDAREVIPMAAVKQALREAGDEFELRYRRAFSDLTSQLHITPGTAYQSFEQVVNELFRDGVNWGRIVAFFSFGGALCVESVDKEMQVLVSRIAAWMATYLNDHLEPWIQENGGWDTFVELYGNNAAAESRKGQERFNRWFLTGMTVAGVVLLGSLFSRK
Aspartyl aminopeptidase, sequence (Q8I2J3 whole entry): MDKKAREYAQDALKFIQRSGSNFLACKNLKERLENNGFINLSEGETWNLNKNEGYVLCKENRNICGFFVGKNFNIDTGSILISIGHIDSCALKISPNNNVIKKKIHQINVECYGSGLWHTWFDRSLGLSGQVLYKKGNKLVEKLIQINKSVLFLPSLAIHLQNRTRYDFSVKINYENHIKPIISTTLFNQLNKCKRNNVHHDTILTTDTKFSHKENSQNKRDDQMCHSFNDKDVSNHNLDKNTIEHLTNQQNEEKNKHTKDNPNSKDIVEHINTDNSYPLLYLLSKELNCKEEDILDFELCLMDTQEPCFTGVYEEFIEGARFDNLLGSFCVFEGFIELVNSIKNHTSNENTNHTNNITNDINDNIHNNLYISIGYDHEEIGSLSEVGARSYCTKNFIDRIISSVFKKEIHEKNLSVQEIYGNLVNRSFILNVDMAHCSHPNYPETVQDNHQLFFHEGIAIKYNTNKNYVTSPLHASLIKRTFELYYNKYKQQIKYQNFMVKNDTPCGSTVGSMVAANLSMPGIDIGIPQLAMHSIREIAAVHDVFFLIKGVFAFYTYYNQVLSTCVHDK

Structure (SMILES) | IC50 [1] | IC50 (Bcl-2-like protein 1) | EC50 [2] | EC50 [3] | EC50 (Protein RecA) | AC50 [4] | IC50 (Aspartyl aminopeptidase) | IC50 (Procathepsin L) | IC50 (Leucine aminopeptidase)
CC12CCC(C(=O)N(NC(=O)c3ccccc3O)C1=O)C2(C)C (centres undefined) | > 109 µM (not active) | > 109 µM (not active) | > 160 µM (inactive) | > 38 µM (not active) | – | – | – | – | –
CCOc1cccc(-c2cc(O)[nH]n2)c1 | – | – | – | – | 0.695 µM (active) | 2.18 µM (active) | > 73.5 µM (not active) | > 59.6 µM (not active) | 1.25 µM (active)

From ChEMBL document CHEMBL1201862, “PubChem BioAssay data set” (2004)
